Measurements: US5985926A, “Method for inhibiting intracellular viral replication” (Cell Therapeutics, Inc., priority 1997, dated 1999)

What was measured:
[1] = test system: HIV-LTR promoter (tat transactivation) in 293-EBNA cells; assay: AP reporter gene expression from HIV-LTR promoter with tat expression vector, 293-EBNA cells; type: cell-based, HIV; human cells; conditions: 293-EBNA cells, HIV promoter, in words
Text: The plasmid construct, pHIV.AP, using the human immunodeficiency virus (HIV) long terminal repeat (LTR) promoter (derived from pU3R-III CAT, Sodroski et al., Science 227:171, 1985) to direct the expression of the sPAP reporter gene, was made by replacing the CMV promoter region from pCMV.AP with the HIV-LTR promoter. PHIV.AP was co-transfected with pSV2tat72, an expression vector for the 72 amino acids tat protein from HIV (Frankel and Pabo, Cell 55:1189-1193, 1988), into 293-EBNA cells (Invitrogen). The cultured cells were treated with various concentrations of the compounds. The expression of the alkaline phosphatase (AP) reporter gene in the individual cultures was measured by following change in absorbance at 405 nm of the cell conditioned media in the presence of a suitable substrate (e.g., ortho-nitrophenol phosphate) (Berger et al., Gene 66:1-10, 1988).
We set up a cell-based system with a cell line cotransfected with an expression plasmid using HIV-1-LTR promoter to direct synthesis of AP reporter gene and an expression plasmid to direct synthesis of the first 72 amino acids of tat protein. Plasmid pREP7 (Invitrogen) was converted to pREP7b by deleting 2,040 bp EBNA-1 coding region and by replacing the pBR322 origin of replication (ori) with the pBluescript KS (Stratagene) ori region. The cDNA for secreted placental alkaline phosphatase (AP) was generated by PCR with the primers (5'-[…]-3')(SEQ ID NO. 3) and (5'-[…]-3') (SEQ ID NO. 4)using the plasmid pGEM-4Z/PLAP489 (American Type Culture Collection) as the template. The 2,000 bp Xba I-Sal I fragment obtained was ligated into a Nhe I/Xho I vector derived from pREP7b to generate the plasmid pREP7b.AP. The 44 bp Xba I-Bgl II fragment from plasmid pMEP4 (Invitrogen)and the 36 bp BamH I-Kpn I fragment from pREP7 were ligated into the Xba I-Kpn I vector fragment from pREP7b.AP to generate the plasmid pMCS.AP. The 720 bp Xho I-Hind III fragment encoding the HIV-LTR promoter from the plasmid pU3R-III-CAT (Sodroski et al., Science 227:171-173, 1985) was ligated into the Xho I-Hind III vector fragment of PMCS.AP to generate the plasmid pHIV.AP. The CMV promoter was derived from the 600 bp Spe I-Asp718 I fragment from pCEP4 (Invitrogen). The 360 bp SV40 early promoter fragments were produced from pSV2tat72 (Frankel et al., Cell 55:1189-1193,1988) by PCR using the primers (5'-[…]-3') (SEQ ID NO. 5) and (5'-[…]-3') (SEQ ID NO. 6). The 480 bp phosphoglycerate kinase (PGK) promoter fragment was amplified from human placental genomic DNA (Promega, Madison, Wis.) based on published sequence (Pfeifer et al., Science 246:810-813, 1990) using the primers (5'-[…]-3') (SEQ ID NO. 7) and (5'-[…]-3') (SEQ ID NO. 8). The above fragments were ligated into the Xba I-Asp718 I vector fragment of pHIV.AP to generate pHIV2.AP, pHIV3.AP, pCMV.AP, pSVE.AP and PPGK.AP respectively. The tat-expression plasmid directed by HIV-LTR promoter, pHIV.tat, was generated by inserting the 400 bp EcoRV-HindIII fragment from pHIV.AP into the PvuII-HindIII vector fragment from pSV2tat72 (Frankel et al., Cell 55:1189-1193, 1988).
Transient transfections with various expression plasmids were performed on a human kidney embryonic cell line 293-EBNA (Invitrogen) using the cationic lipid DOTAP (Boehringer Mannheim). The cell culture media were changed 24 hr after transfection into a serum-free medium AIM V (Life Technologies) before addition of compounds or TNF-α (PeproTech) at the appropriate concentrations. AP activity measured by a colorimetric assay (Berger et al., Gene 66:1-10, 1988) was performed 19-24 hr later.

[2] = test system: CMV promoter in 293-EBNA cells; assay: AP reporter gene expression from CMV promoter, 293-EBNA cells stably transfected with pCMV.AP; type: cell-based, human cytomegalovirus; human cells
Description: An assay for measuring the anti-viral activity of the compounds involves testing the abilities of the compounds to inhibit gene expression directed by specific viral promoters in cell lines. Specifically, a plasmid construct, pCMV.AP, using the human cytomegalovirus (CMV) enhancer and promoter to direct the expression of the secreted human placental alkaline phosphatase reporter gene were transformed into a tumor cell line (e.g., 293-EBNA cells). The cultured cells were treated with various concentrations of the compounds. The expression of the alkaline phosphatase (AP) reporter gene in the individual cultures can then be measured by following the change in absorbance at A405 of the cell conditioned media in the presence of a suitable substrate (e.g., ortho-nitrophenol phosphate) (Berger et al., Gene 66:1,1988).
The construction of expression vectors for secreted placental alkaline phosphatase (sPAP) was performed by obtaining a mammalian episomal expression vector pBL3, derived from the plasmids pMEP4 and pCEP4 (Invitrogen Corp). Specifically, a 600 bp Spe I--Kpn I fragment spanning the CMV promoter from pCEP4 and a 9500 bp Xba I--Kpn I vector fragment from pMEP4 were isolated and ligated together to form pBL3. Full length sPAP cDNA was amplified by PCR using the plasmid pGEM4Z/SEAP (ATCC) as template with primers 5'-[…]-3' (SEQ ID NO. 1) and 5'-[…]-3' (SEQ ID NO. 2). The PCR product was then digested with Xba I and Sal I and inserted between the Nhe I site and the Xho I site within the multiple cloning region of pBL3. The resulting plasmid was designated as PCMV.AP.

293-EBNA cells [3] = assay: Viability of 293-EBNA cells, Alamar Blue; type: cell-based, human
Description: Cell viability was measured by a colorimetric assay that uses Alamar Blue dye (Alamar, Inc.) to report cell proliferation, viability and cytotoxicity. This vital dye indicates cell activity by serving as substrate for mitochrondrial dehydrogenases for the formation of soluble dyes which can be quantitated by determining the difference in absorbance between A570 and A600 using a plate reader.
Cell viability was measured by a […] assay that uses Alamar Blue dye (Alamar, Inc.) to report cell proliferation, viability and cytotoxicity. This vital dye indicates cell activity by serving as substrate for mitochrondrial dehydrogenases for the formation of soluble dyes which can be quantitated by determining the difference in absorbance between A570 and A600 using a plate reader.
This example illustrates that CT2576 suppressed both tat-dependent and TNF-α induced HIV-LTR transcription with an IC50 of approximately 10 μM. Study of the effects of CT2576 on cell toxicity was performed using the Alamar Blue™ dye (Alamar Biosciences) according to the manufacturer's instructions. CT2576 was not toxic to 293-EBNA cells at concentrations up to 35 μM. To show CT2576 can inhibit HIV expression, CT2576 was tested for the ability to block HIV p24 antigen expression in chronically or acutely infected cells. Specifically, CT2576 inhibited the TNF-α and IL-6 induced and the constitutive expression of HIV in the chronically infected U1 cells and in peripheral blood lymphocytes (PBL) freshly infected with a HIV strain from a clinical isolate with an IC50 of approximately 1 μM. Pharmacological inhibition of synthesis of selected PL may therefore be a novel therapeutic approach to suppression of HIV replication.

U1 cells = assay: Cytotoxicity in U1 cells; type: cell-based, human
Text: We studied the effect of CT-2576 on HIV expression in a chronically HIV-1 infected promonocytic U1 cell line (Folks et al., Science 238:800-802, 1987). […] TNF-α and other cytokines can induce HIV expression in U1 cells. U1 cells also express HIV constitutively when grown to a relatively high density. […] An inhibitor of viral reverse transcriptase is expected to only protect new cells from becoming infected but not to affect viral production from cells already infected with HIV. […] While TNF-α induces HIV expression through activation of NFκB, IL-6 and IL-1 also stimulates HIV expression through other pathways independent of NFκB activation in U1 cells.

293-EBNA cells [4] = test system: 293-EBNA cells
NFκB = NFκB activation in 293tat cells, electrophoretic mobility shift assay; type: cell-based, human; conditions: CT2576 12 μM, TNF-α 40 ng/ml or IL-1β 1 ng/ml
Description: (§1) Nuclear extracts (A) from 293tat cells were tested by EMSA for activation of NFκB. A radiolabeled 40-mer covering the NFκB sequences in the HIV promoter was used as a probe. Cells were incubated with CT2576 at 12 μM, human TNF-α at 40 ng/ml or IL-1β at 1 ng/ml, or pre-incubated for 30 min. with CT2576 and then stimulated with TNF-α or IL-1β for 18 hr prior to making extracts. RNA was extracted from 293tat cells (B) after treatment with CT2576 without or with TNF-α or IL-1β for 18 hr. Northern blots analysis were performed using probes derived from AP cDNA and G3PDH cDNA as a control for normalization of mRNA level. AP activity was determined in cell supernatants from the various samples.
(§2) NFκB binding activity in nuclear extracts (Dignam et al., Nucleic Acids Res. 11:1475-1489, 1983) of cells was measured by electrophoretic mobility-shift assay (EMSA) (Carthew et al., Cell 43:439-448, 1985) using 5'-labeled double-stranded synthetic DNA with two NF-κB motifs. Northern blot analysis was performed with total RNA run on 1% agarose/formaldehyde gel and probed with ^32 P-labeled cDNA of AP and glyceraldehyde-3-phosphate dehydrogenase (G3PDH).

AP mRNA in 293tat cells = assay: AP mRNA level in 293tat cells, Northern blot; type: cell-based, human; conditions: with TNF-α or IL-1β
Description: as §1, §2

Compound | inhibition of AP expression (HIV-LTR promoter) [1] | IC50 ([2]; Homo sapiens, 293-EBNA, FIG. 8, read-out: concentration inhibiting AP activity by 50% (CMV assay)) [µM] | inhibition of AP expression (CMV promoter) ([2]; in words) | cytotoxic effect on 293-EBNA cells (Alamar Blue) (293-EBNA cells [3]) | cytotoxicity in U1 cells at 25 μM (U1 cells; 25 μM, FIG. 12 bottom panel, TNFα) | cytotoxicity in U1 cells (U1 cells; FIG. 12 top panel, constitutive) | effect on cell viability / cytotoxicity (293-EBNA cells [4]) | activation of NFκB (NFκB) | AP transcript / mRNA steady-state level (AP mRNA in 293tat cells)
CCCCCCCCNCC(O)CCCCCCCCCn1c(=O)ccn(C)c1=O (stereo not drawn) [CT1827, 3-(11-octylamino-10-hydroxyundecyl)-1-methyluracil] | inhibit HIV promoter driven expression | 2 to 6 | inhibit CMV promoter driven expression | no significant cytotoxic effect | some cytotoxicity | some cytotoxicity | minimal cytotoxic effects |  | 
IL-1β: cytokine used as stimulant |  |  |  |  |  |  |  | NFκB was activated | induction of AP transcripts
